Where “and” joins values, the source holds several entries; their conditions need not be identical. Equal entries are not always repeated.
What was measured:
[1] = Buffer power test: pH on 1X, 2X, 3X dilution with Dulbecco's phosphate buffered saline (DPBS); format: physicochemical; settings: for pH 1X DPBS: 1X dilution with DPBS; for pH 1X DPBS / pH 2X DPBS / pH 3X DPBS / pH 0X DPBS: 22-23° C.; for 1× pH: 1× dilution with DPBS; for pH 2X DPBS: 2X dilution with DPBS; for 2× pH: 2× dilution with DPBS; for pH 3X DPBS: 3X dilution with DPBS; for 3× pH: 3× dilution with DPBS; for pH of the product or solution: undiluted (0×); for pH 0X DPBS: undiluted
Procedure: The pH of the resulting solution is tested and the test is passed if the resulting solution has a pH below 6.0.”
A Dulbecco phosphate buffer saline solution (DPBS) was purchased and used for all compositions at the 1×, 2× and 3× dilution. A typical composition for DPBS is provided below:

[2] = capsules with sesame oil, oral; cited from earlier work

Row | SMILES | pH 1X DPBS ([1]; listed as NaHCO3 .1M*) | pH 1X DPBS ([1]; listed as NaHCO3 .1M**) | 1× pH [1] | pH 2X DPBS ([1]; listed as NaHCO3 .1M*) | pH 2X DPBS ([1]; listed as NaHCO3 .1M**) | 2× pH [1] | pH 3X DPBS ([1]; listed as NaHCO3 .1M*) | pH 3X DPBS ([1]; listed as NaHCO3 .1M**) | 3× pH [1] | pH of the product or solution [1] | pH 0X DPBS [1] | pH 1X DPBS [1] | pH 2X DPBS [1] | pH 3X DPBS [1] | pH of the product or solution ([1]; listed as 0.1M Sodium Carbonate) | pH of the product or solution ([1]; listed as Sodium carbonate solution: 0.1M) | fraction entering the systemic circulation [2]
1 | O=C([O-])O.[Na+] [0.1M Sodium Bicarbonate, sodium bicarbonate] | 7.9 and 7.7 | 7.7 | 7.9 and 7.7 | 7.5 and 7.6 | 7.5 | 7.5 | 7.5 and 7.6 | 7.5 | 7.5 | 8.1 | 8.1 |  |  |  |  |  | 
2 | O=C([O-])[O-].[Na+].[Na+] [Na2CO3 .1M, sodium carbonate] |  |  | 10.9 |  |  | 10.8 |  |  | 10.6 |  | 11.5 and 11.3 | 10.9 and 11.1 | 11.1 | 11.1 | 11.3 | 11.5 | 
3 | CCCCCc1cc(O)c2c(c1)OC(C)(C)[C@@H]1CCC(C)=C[C@@H]21 [dronabinol] |  |  |  |  |  |  |  |  |  |  |  |  |  |  |  |  | 10-20%

Reference: US20140166028A1, “Enhanced Delivery of Nicotine, THC, Tobacco, Cannabidiol or Base Alkaloid from an Electronic Cigarette or Other Vapor or Smoke Producing Device Through Use of an Absorption Conditioning Unit” (priority 2012, published 2014)
